# Measured values reported in patent US9170261B2, “Peptide specific for ovarian cancer and applications” (National Tsing Hua University, priority 2013, dated 2015).
# Key:
# [1] = test system: BG1 ovarian cancer cell line; test: Binding activity (connectivity) of peptide-conjugated magnetic beads to cancer cells; set-up: species or system Human; settings: 10 ng/mL peptide
# Description: Human ovarian cancer cell line, BG1, was used. BG1 was cultured in DMEM/F12 medium containing 10% Fetal Bovine Serum (FBS). Other conditions of the culture are 37° C. and 5% CO2 in moisture atmosphere.
# (§1) 10 ng/mL of the peptide SEQ ID NO:1 of the present invention was used to examine the binding activity to different cancer cells, including pancreatic cancer cell line (BxPC3), colon cancer cell line (HCT8), cervical cancer cell line (HeLa), and liver cancer cell line (HepG2).
# [2] = test system: cervical cancer cell line (HeLa); test: as above; settings: 10 ng/mL peptide
# Description: (§2) Other cell lines were used in the embodiments of the present invention including pancreatic cancer cell line (BxPC3), colon cancer cell line (HCT8), cervical cancer cell line (HeLa), and liver cancer cell line (HepG2).
# as §1
# [3] = test system: colon cancer cell line (HCT8); test: as above; settings: 10 ng/mL peptide
# Description: as §2, §1
# [4] = test system: liver cancer cell line (HepG2); test: as above; settings: 10 ng/mL peptide
# Description: as §2, §1
# [5] = test system: pancreatic cancer cell line (BxPC3); test: as above; settings: 10 ng/mL peptide
# Description: as §2, §1
# [6] = test system: ovarian cancer cells; test: Capturing test with peptide-conjugated magnetic beads, microscopic observation; type: binding; settings: 10^5 ovarian cancer cells
# Description: (A) magnetic beads without peptide conjugation; (B) magnetic beads conjugated to 10 μg/mL of peptide; (C) magnetic beads conjugated to 10 ng/mL of peptide; (D) magnetic beads conjugated to 10 ρg/mL of peptide.
# Different concentrations of the peptide of the present invention were conjugated to magnetic beads, wherein said concentrations are 10 μg/mL, 10 ng/mL, and 10 ρg/mL. The capturing test was performed using 10^5 ovarian cancer cells.
# [7] = test system: other cancer cells; test: Binding activity to other cancer cells (average over non-ovarian lines)
# Description: as §1
substance,measurement,setting,value
N′-MPHPTKNFDLYV-C′ [peptide of the present invention],Connectivity (%),[1],about 80%
same,Connectivity (%),[1]; listed as peptide,more than 80%
same,Connectivity (%),[1]; listed as peptide of present invention,80.38 ± 2.69%
same,Connectivity (%),[2],26.02 ± 2.01%
same,Connectivity (%),[3],22.37 ± 1.89%
same,Connectivity (%),[4],15.77 ± 5.25%
same,Connectivity (%),[5],12.89 ± 0.21%
same,connection to ovarian cancer cells under microscopic observation,"[6]; peptide 10 μg/mL, 10 ng/mL and 10 ρg/mL conjugated to magnetic beads",able to connect to ovarian cancer cells
same,peptide concentration required to efficiently capture ovarian cancer cells,[6]; peptide conjugated to magnetic beads,10 ρg/mL
same,average connectivity to other cancer cells,"[7]; 10 ng/mL peptide, average of non-ovarian cancer cell lines",about 20%
same,binding activity to other cancers,"[7]; pancreatic, colorectal, cervical or liver cancer",negligible binding activity
